Toxic doses and inconclusive results are not listed.
System: P388 leukemia ip, CD2F1 mice, survival T/C
Test: NCI In Vivo Anticancer Drug Screen. Data for tumor model P388 Leukemia (intraperitoneal) in CD2F1 (CDF1) mice
Conditions: endpoint: median survival time, higher = longer survival
How it was run: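 Mice carrying the transplanted tumor received test compound or vehicle. Survival was recorded in each group, and the value is the treated-group measurement divided by that of the vehicle-treated control group.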

[1] = dose: 50.0 mg/kg/injection, schedule: Q04DX003 (ip), vehicle: saline with Tween-80
[2] = dose: 50.0 mg/kg/injection, schedule: Q01DX009 (ip), vehicle: saline
[3] = dose: 100.0 mg/kg/injection, schedule: Q01DX009 (ip), vehicle: saline
[4] = dose: 200.0 mg/kg/injection, schedule: Q01DX009 (ip), vehicle: saline
[5] = dose: 50.0 mg/kg/injection, schedule: Q01DX005 (ip), vehicle: saline with Tween-80
[6] = dose: 100.0 mg/kg/injection, schedule: Q01DX005 (ip), vehicle: saline with Tween-80
[7] = dose: 200.0 mg/kg/injection, schedule: Q01DX005 (ip), vehicle: saline with Tween-80
[8] = dose: 100.0 mg/kg/injection, schedule: Q04DX003 (ip), vehicle: saline with Tween-80
[9] = dose: 200.0 mg/kg/injection, schedule: Q04DX003 (ip), vehicle: saline with Tween-80

In the case of `CC1(C)CCCC2(C)C1CCC1(C)OC(/C(C=O)=C/C=O)CC12` (configuration not stated), the T/C (dose: 40.0 mg/kg/injection, schedule: Q01DX009 (ip), vehicle: Klucel (hydroxypropylcellulose) (HPC)) is reported as 112 % of control and the T/C (dose: 80.0 mg/kg/injection, schedule: Q01DX009 (ip), vehicle: Klucel (hydroxypropylcellulose) (HPC)) is reported as 105 % of control.
For `CS(=O)(=O)OCCCCCCCCCOS(C)(=O)=O`, the T/C (dose: 12.5 mg/kg/injection, schedule: Q01DX009 (ip), vehicle: saline sonified) was 109 % of control, the T/C (dose: 25.0 mg/kg/injection, schedule: Q01DX009 (ip), vehicle: saline sonified) was 122 % of control and the T/C (dose: 33.0 mg/kg/injection, schedule: Q04DX003 (ip), vehicle: saline with Tween-80) was 109 % of control. The T/C (dose: 50.0 mg/kg/injection, schedule: Q01DX009 (ip), vehicle: saline sonified) was 118 % of control, the T/C [1] was 122 % of control and the T/C (dose: 75.0 mg/kg/injection, schedule: Q04DX003 (ip), vehicle: saline with Tween-80) was 159 % of control.
In the case of `O=C1S/C(=C2\C(=O)N(CN3CCCCC3)c3ccc(Br)cc32)C(=O)N1CN1CCCCC1`, the T/C (dose: 60.0 mg/kg/injection, schedule: Q01DX005 (ip), vehicle: Klucel (hydroxypropylcellulose) (HPC)) is reported as 100 % of control, the T/C (dose: 120.0 mg/kg/injection, schedule: Q01DX005 (ip), vehicle: Klucel (hydroxypropylcellulose) (HPC)) is reported as 101 % of control and the T/C (dose: 240.0 mg/kg/injection, schedule: Q01DX005 (ip), vehicle: Klucel (hydroxypropylcellulose) (HPC)) is reported as 99 % of control.
`COc1cc(C[C@H]2c3cc(OC)c(OC)c(O)c3CCN2C)c(Oc2cc3c(cc2OC)-c2c(OC)c(OC)c(OC)c4c2C(C3)N(C)CC4)cc1OC` (some centres not stated) (tested in a mixture with another compound) was tested, and the T/C (dose: 8.75 mg/kg/injection, schedule: Q01DX005 (ip), vehicle: Klucel (hydroxypropylcellulose) (HPC)) was 103 % of control, the T/C (dose: 17.5 mg/kg/injection, schedule: Q01DX005 (ip), vehicle: Klucel (hydroxypropylcellulose) (HPC)) was 99 % of control and the T/C (dose: 35.0 mg/kg/injection, schedule: Q01DX005 (ip), vehicle: Klucel (hydroxypropylcellulose) (HPC)) was 96 % of control. For the same molecule, the T/C (dose: 70.0 mg/kg/injection, schedule: Q01DX005 (ip), vehicle: Klucel (hydroxypropylcellulose) (HPC)) was 94 % of control.
`CCOC(=O)C1CSCN1` (configuration not stated) was tested, and the T/C (dose: 25.0 mg/kg/injection, schedule: Q01DX009 (ip), vehicle: saline) was 97 % of control, the T/C [2] was 95 % of control and the T/C [3] was 100 % of control. The T/C [4] was 100 % of control.
With `C=Cn1c([N+](=O)[O-])cnc1/C=C/c1ccc(C(=O)NC(C)CC)cc1` (configuration not stated) the T/C (dose: 100.0 mg/kg/injection, schedule: Q04DX002 (ip), vehicle: gum acacia) was 93 % of control, the T/C (dose: 200.0 mg/kg/injection, schedule: Q04DX002 (ip), vehicle: gum acacia) was 91 % of control and the T/C (dose: 400.0 mg/kg/injection, schedule: Q04DX002 (ip), vehicle: gum acacia) was 96 % of control.
In the case of `COC(=O)C(CSCc1ccccc1)NC(=O)c1csc(CCNC(=O)c2ccccc2)n1` (configuration not stated), the T/C (dose: 12.5 mg/kg/injection, schedule: Q01DX009 (ip), vehicle: DMSO) is reported as 99 % of control, the T/C (dose: 25.0 mg/kg/injection, schedule: Q01DX009 (ip), vehicle: DMSO) is reported as 99 % of control and the T/C (dose: 50.0 mg/kg/injection, schedule: Q01DX009 (ip), vehicle: DMSO) is reported as 100 % of control. The T/C (dose: 100.0 mg/kg/injection, schedule: Q01DX009 (ip), vehicle: DMSO) was 101 % of control and the T/C (dose: 200.0 mg/kg/injection, schedule: Q01DX009 (ip), vehicle: DMSO) was 96 % of control.
For `Cc1c2ccncc2c(CN(CCO)CCO)c2c3ccccc3n(C)c12`, the T/C (dose: 5.0 mg/kg/injection, schedule: Q01DX005 (ip), vehicle: saline) was 103 % of control, the T/C (dose: 10.0 mg/kg/injection, schedule: Q01DX005 (ip), vehicle: saline) was 100 % of control and the T/C (dose: 20.0 mg/kg/injection, schedule: Q01DX005 (ip), vehicle: saline) was 90 % of control.
With `O=C(OCCc1c[nH]c2ccccc12)N(CCCl)CCCl` the T/C (dose: 1.56 mg/kg/injection, schedule: Q01DX009 (ip), vehicle: distilled water + Tween-80) was 101 % of control, the T/C (dose: 3.12 mg/kg/injection, schedule: Q01DX009 (ip), vehicle: distilled water + Tween-80) was 103 % of control and the T/C (dose: 6.25 mg/kg/injection, schedule: Q01DX009 (ip), vehicle: distilled water + Tween-80) was 105 % of control. The T/C (dose: 12.5 mg/kg/injection, schedule: Q01DX009 (ip), vehicle: distilled water + Tween-80) was 109 % of control and the T/C (dose: 25.0 mg/kg/injection, schedule: Q01DX009 (ip), vehicle: distilled water + Tween-80) was 111 % of control.
For `COC1=C(N=[N+]=[N-])C(=O)c2ncccc2C1=O`, the T/C (dose: 0.63 mg/kg/injection, schedule: Q01DX009 (ip), vehicle: DMSO) was 100 % of control, the T/C (dose: 1.25 mg/kg/injection, schedule: Q01DX009 (ip), vehicle: DMSO) was 100 % of control and the T/C (dose: 1.56 mg/kg/injection, schedule: Q01DX009 (ip), vehicle: saline with Tween-80) was 95 % of control. For the same molecule, the T/C (dose: 2.5 mg/kg/injection, schedule: Q01DX009 (ip), vehicle: DMSO) was 107 % of control, the T/C (dose: 3.12 mg/kg/injection, schedule: Q01DX009 (ip), vehicle: saline with Tween-80) was 98 % of control and the T/C (dose: 5.0 mg/kg/injection, schedule: Q01DX009 (ip), vehicle: DMSO) was 100 % of control.
With `NC(S(=O)(=O)O)S(=O)(=O)O` the T/C [2] was 105 % of control, the T/C [3] was 110 % of control and the T/C [4] was 96 % of control.
With `O=C1OCC(c2ccccc2)(c2ccccc2)C(=O)N1O` the T/C [5] was 98 % of control, the T/C [6] was 103 % of control and the T/C [7] was 91 % of control.
For `CC12CC(c3ccccc3N1)C1CC2(C)Nc2ccccc21`, the T/C (dose: 50.0 mg/kg/injection, schedule: Q01DX005 (ip), vehicle: Klucel (hydroxypropylcellulose) (HPC)) was 95 % of control, the T/C (dose: 100.0 mg/kg/injection, schedule: Q01DX005 (ip), vehicle: Klucel (hydroxypropylcellulose) (HPC)) was 100 % of control and the T/C (dose: 200.0 mg/kg/injection, schedule: Q01DX005 (ip), vehicle: Klucel (hydroxypropylcellulose) (HPC)) was 102 % of control.
With `CCOC(=O)COC(=O)C1C(C(N)=O)N(CC(=O)OCC)CCN1CC(=O)OCC` (configuration not stated) the T/C [5] was 101 % of control, the T/C [6] was 99 % of control and the T/C [7] was 103 % of control.
In the case of `CN(C)N(P(c1ccccc1)c1ccccc1)P(c1ccccc1)c1ccccc1`, the T/C [8] is reported as 93 % of control, the T/C [9] is reported as 92 % of control and the T/C (dose: 400.0 mg/kg/injection, schedule: Q04DX003 (ip), vehicle: saline with Tween-80) is reported as 94 % of control.
For `Cc1ncc(C[n+]2csc(CCO)c2C)c(N)n1`, the T/C [2] was 108 % of control, the T/C [3] was 105 % of control and the T/C [4] was 97 % of control.
In the case of `O=C1C(=O)c2nc3ccccc3nc2-c2ccccc21`, the T/C (dose: 25.0 mg/kg/injection, schedule: Q01DX005 (ip), vehicle: water) is reported as 103 % of control, the T/C (dose: 50.0 mg/kg/injection, schedule: Q01DX005 (ip), vehicle: water) is reported as 97 % of control and the T/C (dose: 100.0 mg/kg/injection, schedule: Q01DX005 (ip), vehicle: water) is reported as 100 % of control. The T/C (dose: 200.0 mg/kg/injection, schedule: Q01DX005 (ip), vehicle: water) was 96 % of control and the T/C (dose: 400.0 mg/kg/injection, schedule: Q01DX005 (ip), vehicle: water) was 104 % of control.
In the case of `COc1ccc(OC)c(C(=O)c2cccc(C(=O)c3cc(OC)ccc3OC)n2)c1`, the T/C (dose: 60.0 mg/kg/injection, schedule: Q01DX005 (ip), vehicle: saline with Tween-80) is reported as 99 % of control, the T/C (dose: 120.0 mg/kg/injection, schedule: Q01DX005 (ip), vehicle: saline with Tween-80) is reported as 109 % of control and the T/C (dose: 240.0 mg/kg/injection, schedule: Q01DX005 (ip), vehicle: saline with Tween-80) is reported as 119 % of control.
With `Cc1cc(Cl)ccc1N=Cc1ccc(C=Nc2ccc(Cl)cc2C)cc1` the T/C (dose: 12.5 mg/kg/injection, schedule: Q01DX009 (ip), vehicle: Klucel (hydroxypropylcellulose) (HPC)) was 94 % of control, the T/C (dose: 25.0 mg/kg/injection, schedule: Q01DX009 (ip), vehicle: Klucel (hydroxypropylcellulose) (HPC)) was 95 % of control and the T/C (dose: 50.0 mg/kg/injection, schedule: Q01DX009 (ip), vehicle: Klucel (hydroxypropylcellulose) (HPC)) was 99 % of control.
With `COc1ccc(Cn2nnc(C(N)=O)c2NC=O)cc1` the T/C (dose: 100.0 mg/kg/injection, schedule: Q01DX001 (ip), vehicle: Klucel (hydroxypropylcellulose) (HPC)) was 95 % of control, the T/C (dose: 200.0 mg/kg/injection, schedule: Q01DX001 (ip), vehicle: Klucel (hydroxypropylcellulose) (HPC)) was 100 % of control and the T/C (dose: 400.0 mg/kg/injection, schedule: Q01DX001 (ip), vehicle: Klucel (hydroxypropylcellulose) (HPC)) was 100 % of control.
For `NC(=S)N/N=C/c1nc2ccccc2[nH]1`, the T/C (dose: 25.0 mg/kg/injection, schedule: Q04DX003 (ip), vehicle: saline with Tween-80) was 100 % of control, the T/C [1] was 100 % of control and the T/C [8] was 106 % of control. For the same molecule, the T/C [9] was 91 % of control.

From PubChem BioAssay AID330 (DTP/NCI, 2004)
